Measured values published in EPA's ToxRefDB 2.

Key:
rat [1] = conditions: Fertility (Segment I), sprague dawley, Oral, Gavage/Intubation, dose end: 7 GD
rat [2] = conditions: Fertility (Segment I), sprague dawley, Oral, Gavage/Intubation, dose end: 7 GD; remark: listed apart in the source
rat [3] = conditions: Prenatal developmental toxicity study, sprague dawley, Oral, Gavage/Intubation, dose end: 17 GD
rat [4] = conditions: Sub-acute repeat dose toxicity, sprague dawley, Oral, Gavage/Intubation, dose end: 4 week, group: systemic
rat [5] = conditions: Prenatal developmental toxicity study, sprague dawley, Oral, Gavage/Intubation, dose end: 17 GD; remark: listed apart in the source
dog = conditions: Sub-acute repeat dose toxicity, beagle, Oral, Capsule, dose end: 1 month, group: systemic
rabbit [6] = conditions: Prenatal developmental toxicity study, new zealand white, Oral, Gavage/Intubation, dose end: 19 GD
rat [7] = conditions: Prenatal developmental toxicity study; sprague dawley; Oral; Gavage/Intubation; dose end: 17 GD; group: maternal; systemic / in life observation / body weight / body weight + systemic / in life observation / body weight / body weight gain + systemic / in…
rabbit [8] = conditions: Prenatal developmental toxicity study; new zealand white; Oral; Gavage/Intubation; dose end: 19 GD; group: maternal; systemic / in life observation / body weight / body weight gain + systemic / in life observation / food consumption / food consumption
[9] = group: maternal, reproductive / reproductive performance / estrous cycle / abnormal + reproductive / reproductive performance / estrous cycle / corpora lutea…
[10] = group: parental, systemic / in life observation / body weight / body weight + systemic / in life observation / body weight / body weight gain
[11] = group: parental, systemic / in life observation / body weight / body weight + systemic / in life observation / body weight / body weight gain + systemic / in…
[12] = group: maternal, reproductive / reproductive performance / estrous cycle / abnormal
[13] = group: parental, systemic / in life observation / body weight / body weight gain
[14] = group: parental, systemic / in life observation / body weight / body weight gain + systemic / in life observation / food consumption / food consumption
[15] = group: developmental, developmental / developmental malformation / trunk / absent genital tubercle + developmental / developmental malformation / trunk / anal …
[16] = group: maternal, systemic / in life observation / body weight / body weight + systemic / in life observation / body weight / body weight gain + systemic / in…
[17] = systemic / clinical chemistry / alanine aminotransferase (alt/sgpt) / alanine aminotransferase (alt/sgpt) + systemic / in life observation…
[18] = systemic / organ weight / salivary glands / absolute + systemic / pathology microscopic / vagina / diestrus
[19] = group: developmental, developmental / developmental malformation / bone / unossified + systemic / in life observation / body weight / fetal weight
[20] = systemic / in life observation / clinical signs / defecation (diarrhea)
[21] = systemic / in life observation / clinical signs / defecation (diarrhea) + systemic / clinical chemistry / alanine aminotransferase (alt/sgpt…
[22] = group: developmental, developmental / developmental malformation / bone / incomplete ossification + developmental / developmental malformation / bone / unossified…
[23] = group: maternal, systemic / in life observation / body weight / body weight gain + systemic / in life observation / food consumption / food consumption
[24] = group: maternal, systemic / in life observation / body weight / body weight gain + systemic / in life observation / food consumption / food consumption + …

CN(C)C(=O)NC1(c2ccccc2)CCN(CC[C@@]2(c3ccc(F)c(F)c3)CN(C(=O)c3ccccc3)CCO2)CC1.Cl
200 mg/kg/day: LEL (rabbit [6]; [22]) | LOAEL (rabbit [6]; [22])
< 20 mg/kg/day: NEL (rat [2]; [12]) | NEL (rat [2]; [13]) | NEL (rat [4]; [18]) | NEL (dog; [20])
> 180 mg/kg/day: LOAEL (dog; [21])
60 mg/kg/day: NEL (rabbit [6]; [22]) | NOAEL (rabbit [6]; [22]) | LEL (rabbit [6]; [23]) | LOAEL (rabbit [6]; [23])
70 mg/kg/day: NEL (rat [1]; [9]) | LEL (rat [1]; [10]) | LOAEL (rat [1]; [10]) | NEL (rat [5]; [19]) | NOAEL (rat [5]; [19]) | NEL (rat [5]; [16]) | NOAEL (rat [5]; [16])
20 mg/kg/day: NEL (rat [1]; [11]) | NOAEL (rat [1]; [11]) | LEL (rat [2]; [12]) | NOAEL (rat [2]; [9]) | LEL (rat [2]; [13]) | NOAEL (rat [2]; [14]) | NEL (rat [3]; [16]) | NOAEL (rat [4]; [17]) | LEL (rat [4]; [18]) | LEL (dog; [20]) | NEL (rabbit [6]; [24]) | NOAEL (rabbit [6]; [24]) | NEL (rabbit [8])
< 250 mg/kg/day: NEL (rat [7])
100 mg/kg/day: LOAEL (rat [2]; [12]) | LOAEL (rat [2]; [14]) | NEL (rat [3]; [15]) | NOAEL (rat [3]; [15]) | NOAEL (rat [3]; [16]) | LEL (rat [3]; group: maternal, systemic / in life observation / clinical signs / piloerection + systemic / pathology gross / kidney / reduced size) | LOAEL (rat [4]; [17]) | LEL (rabbit [8])
500 mg/kg/day: LEL (rat [3]; [15]) | LOAEL (rat [3]; [15]) | LOAEL (rat [3]; [16])
≥ 180 mg/kg/day: NOAEL (dog; [21])
≥ 250 mg/kg/day: NOAEL (rat [1]; [9]) | NOAEL (rat [7])
≥ 200 mg/kg/day: NOAEL (rabbit [8])
250 mg/kg/day: LEL (rat [1]; [9]) | LEL (rat [5]; [19]) | LOAEL (rat [5]; [19]) | LEL (rat [5]; [16]) | LOAEL (rat [5]; [16]) | LEL (rat [7])
> 250 mg/kg/day: LOAEL (rat [1]; [9]) | LOAEL (rat [7])
> 200 mg/kg/day: LOAEL (rabbit [8])
